The values that follow are results of earlier work, collected in patent US8129131B2, “Pin1 as a marker for abnormal cell growth” (Beth Israel Deaconess Medical Center, priority 1999, dated 2012).

This series relates to Pin1 or its WW domain. Conditions: pre-incubation with various peptide concentrations before mitotic extracts; concentration-dependent.
Chain of Pin1 or its WW domain (Q13526 1-39 limits assumed): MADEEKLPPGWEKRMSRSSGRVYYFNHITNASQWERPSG

As to WFYpSPRLKK [Pintide], the “phosphoprotein-binding activity of Pin1 or its WW domain” value is reported as “significantly reduced”.
